Consider 68 sequences from the supplement of paper PMC11208160.
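Further: IS621 bridge recombinase in Escherichia coli cells against a fixed T5 target plasmid.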

A short description of the data set: recombinant UMI read abundance after kanamycin selection (control-corrected) (log10(CPM+1)); higher = more efficient recombination; extreme values may be limits of the assay; sequences stand for … in AGTGCAGAGAAAATCGGCCAGTTTTCTCTGCCTGCAGTCCGCATGCCGTGGGACCCCTTGGGTTCTAACCTGTTGCCTAGATTTATGCAGCGGACTGCCTTTCTCCCAAAGTGATAAACCGG…AGGTTGGTTTCACT; site = the 11-nt donor. The method, boiled down: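 Values are reported as log10(CPM+1), obtained by converting sequencing counts to CPM, averaging replicates and scaling by control-derived factors. The counts came from recombinant UMIs amplified by PCR across the donor–target junction. These UMIs came from a pooled Escherichia coli screen of donor and donor-binding-loop pairs for the IS621 bridge recombinase, plated with IPTG (0.07 mM) plus kanamycin or left unselected, in two replicates each.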
“TGTTCCACATGGACCGGTTTTCCCGGTAATCCGTATTTGTA (site TGTTCCCCTTA)”: the “recombinant UMI read abundance (log10)” value stood at 0.00983. As to “TGTTCCACATGGACCGGTTTTCCCGGTAATCCGTATTTGTA (site TGTTCCGCTTA)”, the “recombinant UMI read abundance (log10)” value was 0.0123. Take “TGTTCCACATGGACCGGTTTTCCCGGTAATCCGTATTTGTA (site TGTTCCTCTTA)”: the “recombinant UMI read abundance (log10)” value came to 0.0149. The value for “TGTTCCGCATGGACCGGTTTTCCCGGTAATCCGTATTTGGC (site TGTTCCGCTGC)” was 0.484. The value for “TGTTCCTCATGGACCGGTTTTCCCGGTAATCCGTATTTGTA (site TGTTCCACTTA)” was 0.0142. The value for “TGTTCCTCATGGACCGGTTTTCCCGGTAATCCGTATTTGTA (site TGTTCCCCTTA)” was 0.00558. For “TGTTCCTCATGGACCGGTTTTCCCGGTAATCCGTATTTGTA (site TGTTCCGCTTA)”, the “recombinant UMI read abundance (log10)” value worked out at 0. The result for “TGTTCCTCATGGACCGGTTTTCCCGGTAATCCGTATTTGTA (site TGTTCCTCTTA)” reads 1.06. The result for “TGTTCGCCATGGACCGGTTTTCCCGGTAATCCGTATTTGTA (site TGTTCACCTTA)” reads 0; that for “TGTTCGCCATGGACCGGTTTTCCCGGTAATCCGTATTTGTA (site TGTTCCCCTTA)”, 0.0392; that for “TGTTCGCCATGGACCGGTTTTCCCGGTAATCCGTATTTGTA (site TGTTCGCCTTA)”, 0.0127. “TGTTCGCCATGGACCGGTTTTCCCGGTAATCCGTATTTGTA (site TGTTCTCCTTA)”: the “recombinant UMI read abundance (log10)” value was 0.

In the case of “TGTTTCCCATGGACCGGTTTTCCCGGTAATCCGTATTTGTA (site TGTTACCCTTA)”, the “recombinant UMI read abundance (log10)” value was found to be 0.139. As to “TGTTTCCCATGGACCGGTTTTCCCGGTAATCCGTATTTGTA (site TGTTCCCCTTA)”, the “recombinant UMI read abundance (log10)” value is 0.0148. The result for “TGTTTCCCATGGACCGGTTTTCCCGGTAATCCGTATTTGTA (site TGTTGCCCTTA)” reads 0.0291. The value for “TGTTTCCCATGGACCGGTTTTCCCGGTAATCCGTATTTGTA (site TGTTTCCCTTA)” was 0.152; that for “TGTTTGGCATGGACCGGTTTTCCCGGTAATCCGTATTTGCT (site AGTTTGGCTAG)” was 0; that for “TGTTTGGCATGGACCGGTTTTCCCGGTAATCCGTATTTGCT (site CGTTTGGCTAG)” was 0.00328. The value for “TGTTTGGCATGGACCGGTTTTCCCGGTAATCCGTATTTGCT (site GGTTTGGCTAG)” was 0.0409. As for “TGTTTGGCATGGACCGGTTTTCCCGGTAATCCGTATTTGCT (site TGTTTGGCTAG)”, the “recombinant UMI read abundance (log10)” value was determined as 0. The result for “TTAATTTCATGGACCGGTTTTCCCGGTAATCCGTATTTGAA (site TTAATTTCTTT)” reads 0; that for “TTACCTGCATGGACCGGTTTTCCCGGTAATCCGTATTTGTG (site TTAACTGCTCA)”, 0.013; that for “TTACCTGCATGGACCGGTTTTCCCGGTAATCCGTATTTGTG (site TTACCTGCTCA)”, 0.0157. The result for “TTACCTGCATGGACCGGTTTTCCCGGTAATCCGTATTTGTG (site TTAGCTGCTCA)” reads 0.00404.

With “TTACCTGCATGGACCGGTTTTCCCGGTAATCCGTATTTGTG (site TTATCTGCTCA)”, the “recombinant UMI read abundance (log10)” value came to 0.00944. The result for “TTACGTCCATGGACCGGTTTTCCCGGTAATCCGTATTTGGT (site TTACGTCCTAC)” reads 0.02. The result for “TTACTGACATGGACCGGTTTTCCCGGTAATCCGTATTTGCC (site GGTTATCCTTC)” reads 0.00491; that for “TTAGAGACATGGACCGGTTTTCCCGGTAATCCGTATTTGCG (site TAAGAGACTCG)”, 0.923; that for “TTAGAGACATGGACCGGTTTTCCCGGTAATCCGTATTTGCG (site TCAGAGACTCG)”, 1.03. For the sequence “TTAGAGACATGGACCGGTTTTCCCGGTAATCCGTATTTGCG (site TGAGAGACTCG)”, the “recombinant UMI read abundance (log10)” value came to 0.02. The value for “TTAGAGACATGGACCGGTTTTCCCGGTAATCCGTATTTGCG (site TTAGAGACTCG)” was 2.16; that for “TTAGATGCATGGACCGGTTTTCCCGGTAATCCGTATTTGCC (site TTAGATGCTGG)” was 1.9.

“TTAGCAGCATGGACCGGTTTTCCCGGTAATCCGTATTTGCC (site TTAGCAGCTGG)”: the “recombinant UMI read abundance (log10)” value was found to be 2.61. The value for “TTAGCAGCATGGACCGGTTTTCCCGGTAATCCGTATTTGTG (site TTAGCAGCTCA)” was 0.707. The value for “TTAGCAGCATGGACCGGTTTTCCCGGTAATCCGTATTTGTG (site TTAGCCGCTCA)” was 0.0121; that for “TTAGCAGCATGGACCGGTTTTCCCGGTAATCCGTATTTGTG (site TTAGCGGCTCA)” was 0.0104. The result for “TTAGCAGCATGGACCGGTTTTCCCGGTAATCCGTATTTGTG (site TTAGCTGCTCA)” reads 0.00315. For the sequence “TTAGCGGCATGGACCGGTTTTCCCGGTAATCCGTATTTGCT (site TTAGCGGCTAG)”, the “recombinant UMI read abundance (log10)” value stood at 1.71. “TTAGCGGCATGGACCGGTTTTCCCGGTAATCCGTATTTGCT (site TTCGCGGCTAG)”: the “recombinant UMI read abundance (log10)” value is 0.

Regarding “TTAGCGGCATGGACCGGTTTTCCCGGTAATCCGTATTTGCT (site TTGGCGGCTAG)”, the “recombinant UMI read abundance (log10)” value turned out to be 0. Take “TTAGCGGCATGGACCGGTTTTCCCGGTAATCCGTATTTGCT (site TTTGCGGCTAG)”: the “recombinant UMI read abundance (log10)” value is 0. Turning to “TTAGCTGCATGGACCGGTTTTCCCGGTAATCCGTATTTGGG (site TTAGCTGCTCA)”, the “recombinant UMI read abundance (log10)” value amounted to 0. As for “TTAGCTGCATGGACCGGTTTTCCCGGTAATCCGTATTTGGG (site TTAGCTGCTCC)”, the “recombinant UMI read abundance (log10)” value was 0.0113. The result for “TTAGCTGCATGGACCGGTTTTCCCGGTAATCCGTATTTGGG (site TTAGCTGCTCG)” reads 0.0143; that for “TTAGCTGCATGGACCGGTTTTCCCGGTAATCCGTATTTGGG (site TTAGCTGCTCT)”, 0; that for “TTAGCTGCATGGACCGGTTTTCCCGGTAATCCGTATTTGTG (site ATAGCTGCTCA)”, 0.183. Take “TTAGCTGCATGGACCGGTTTTCCCGGTAATCCGTATTTGTG (site CTAGCTGCTCA)”: the “recombinant UMI read abundance (log10)” value is 0.221. For the sequence “TTAGCTGCATGGACCGGTTTTCCCGGTAATCCGTATTTGTG (site GTAGCTGCTCA)”, the “recombinant UMI read abundance (log10)” value was 0.0161.

With “TTAGCTGCATGGACCGGTTTTCCCGGTAATCCGTATTTGTG (site TAAGCTGCTCA)”, the “recombinant UMI read abundance (log10)” value came out at 0.00653. The value for “TTAGCTGCATGGACCGGTTTTCCCGGTAATCCGTATTTGTG (site TCAGCTGCTCA)” was 0.0262; that for “TTAGCTGCATGGACCGGTTTTCCCGGTAATCCGTATTTGTG (site TGAGCTGCTCA)” was 0.0117.

“TTAGCTGCATGGACCGGTTTTCCCGGTAATCCGTATTTGTG (site TTAACTGCTCA)”: the “recombinant UMI read abundance (log10)” value came to 0.0107. The result for “TTAGCTGCATGGACCGGTTTTCCCGGTAATCCGTATTTGTG (site TTACCTGCTCA)” reads 0.00862; that for “TTAGCTGCATGGACCGGTTTTCCCGGTAATCCGTATTTGTG (site TTAGATGCTCA)”, 0.0477. For “TTAGCTGCATGGACCGGTTTTCCCGGTAATCCGTATTTGTG (site TTAGCAGCTCA)”, the “recombinant UMI read abundance (log10)” value is 0.00587. Turning to “TTAGCTGCATGGACCGGTTTTCCCGGTAATCCGTATTTGTG (site TTAGCCGCTCA)”, the “recombinant UMI read abundance (log10)” value is 0. Turning to “TTAGCTGCATGGACCGGTTTTCCCGGTAATCCGTATTTGTG (site TTAGCGGCTCA)”, the “recombinant UMI read abundance (log10)” value is 0.00865. The value for “TTAGCTGCATGGACCGGTTTTCCCGGTAATCCGTATTTGTG (site TTAGCTACTCA)” was 0.0282; that for “TTAGCTGCATGGACCGGTTTTCCCGGTAATCCGTATTTGTG (site TTAGCTCCTCA)” was 0.0123.

Take “TTAGCTGCATGGACCGGTTTTCCCGGTAATCCGTATTTGTG (site TTAGCTGCTAA)”: the “recombinant UMI read abundance (log10)” value is 0.0166. The result for “TTAGCTGCATGGACCGGTTTTCCCGGTAATCCGTATTTGTG (site TTAGCTGCTCA)” reads 0.543; that for “TTAGCTGCATGGACCGGTTTTCCCGGTAATCCGTATTTGTG (site TTAGCTGCTCC)”, 0.0667. For “TTAGCTGCATGGACCGGTTTTCCCGGTAATCCGTATTTGTG (site TTAGCTGCTCG)”, the “recombinant UMI read abundance (log10)” value was determined as 0.0153.

For the sequence “TTAGCTGCATGGACCGGTTTTCCCGGTAATCCGTATTTGTG (site TTAGCTGCTCT)”, the “recombinant UMI read abundance (log10)” value worked out at 0.162. On to “TTAGCTGCATGGACCGGTTTTCCCGGTAATCCGTATTTGTG (site TTAGCTGCTGA)”, for which the “recombinant UMI read abundance (log10)” value is 0.631. Take “TTAGCTGCATGGACCGGTTTTCCCGGTAATCCGTATTTGTG (site TTAGCTGCTTA)”: the “recombinant UMI read abundance (log10)” value came out at 0.192. For “TTAGCTGCATGGACCGGTTTTCCCGGTAATCCGTATTTGTG (site TTAGCTTCTCA)”, the “recombinant UMI read abundance (log10)” value was 0.00647. The value for “TTAGCTGCATGGACCGGTTTTCCCGGTAATCCGTATTTGTG (site TTAGGTGCTCA)” was 0.0094.
